Test results from patent publication US20230147962A1, “FIBROBLAST ACTIVATION PROTEIN LIGANDS FOR TARGETED DELIVERY APPLICATIONS” (PHILOCHEM AG, priority 2020, published 2023).
*1 amine or outer side, *2 acyl side, *3 side chain or, on linkers, in order; H or OH if unused. Where a SMILES comes first, the peptide text is derived from it. The star is where a group is joined. Fluorescein(5-Mal) = O=C1OC2(c3ccc(O)cc3Oc3cc(O)ccc32)c2ccc(N3C(=O)CC(*)C3=O)cc21; X2 = N#C[C@@H]1CC(F)(F)CN1C(=O)CNC(=O)c1ccnc2ccc(OCCCN3CCN(*)CC3)cc12; Suc = O=C(CCC(=O)[*:2])[*:1]

Experiments:
[1] = test system: SK-RC-52.hFAP and SK-RC-52.wt xenografts; experiment: Ex vivo targeting experiment, SK-RC-52.hFAP and SK-RC-52.wt xenografts; assay type: in vivo, BALB/C nu/nu mice; conditions: 40 nmol intravenous, ex vivo organ images 1 h
Method: (§1) SK-RC-52.hFAP, HT-1080.hFAP, SK-RC-52.wt cells were grown to 80% confluence and detached with Trypsin-EDTA 0.05%. Cells were re-suspended in HBSS medium to a final concentration of 5×10^7 cells/mL. […] SK-MEL-187 cells were grown to 80% confluence and detached with Trypsin-EDTA 0.05%. Cells were re-suspended in a 1:1 mixture of HBSS:Matrigel to a final concentration of 10×10^7 cells/mL.
(§2) Mice bearing subcutaneous SK-RC-52.hFAP or HT-1080.hFAP tumors on the right flank and SK-RC-52.wt tumor on the left flank were injected intravenously with conjugate 30 (40 nmol in sterile PBS, pH 7.4). […] Cryostat sections ([…]) were cut and nuclei were stained with Fluorescence Mounting Medium (Dako Omnis, Agilent). Images were obtained using an Axioskop2 mot plus microscope (Zeiss) and analyzed by ImageJ 1.53 software.

[2] = test system: HT-1080.hFAP and SK-RC-52.wt xenografts; experiment: Ex vivo targeting experiment, HT-1080.hFAP and SK-RC-52.wt xenografts; assay type: in vivo, BALB/C nu/nu mice; conditions: 40 nmol intravenous, ex vivo organ images 1 h
Method: as §1, §2

SK-MEL-187 tumour = conditions: 250 nmol/kg daily for 7 consecutive days
Method: SK-MEL-187 xenografted tumours were implanted into female athymic BALB/C nu/nu mice (6-8 weeks of age) as described above, and allowed to grow to an average volume of 0.1 mL. Mice were randomly assigned into therapy groups of 3 animals. […] Tumours were measured with an electronic caliper and animals were weighted daily. Tumour volume (mm^3) was calculated with the formula (long side, mm)×(short side, mm)×(short side, mm)×0.5 (FIG. 8). Prism 6 software (GraphPad Software) was used for data analysis (regular two-way ANOVA followed by Bonferroni test).

[3] = test system: SK-RC-52.hFAP and SK-RC-52.wt tumours; conditions: 250 nmol/kg, 6 hours after intravenous administration
Method: (§4) SK-RC-52.hFAP (right flank) and SK-RC-52.wt (left flank) xenografted tumors were implanted into female athymic BALB/C nu/nu mice (6-8 weeks of age) as described above, and allowed to grow to an average volume of 0.1 mL.
(§5) Frozen organs were cutted with a scalpel (50 mg), and suspended in 600 μL of 95:5 Acetonitrile/water (0.1% TFA). A solution of D8-MMAE in 3:97 Acetonitrile/water (0.1% FA; internal standard, 50 μL, 50 nM) was added. The samples were mechanically lysed with a Tissue Lyser II (Qiagen, 30 Hz shaking, 15 minutes). Plasma samples (50 μL) were added with a solution of D8-MMAE in 3:97 Acetonitrile/water (0.1% FA; internal standard, 50 μL, 50 nM) and proteins were precipitated by addition of 600 μL of 95:5 Acetonitrile/water (0.1% TFA). Proteins from both organs and plasma samples were pelleted by centrifugation and supernatants were dried with a vacuum centrifuge. Solid remanences were resuspended in 1 mL of 3:97 Acetonitrile/water (0.1% TFA) and solutions were cleaned up through a first purification step on HBL Oasis columns and a second purification on C18 Macro Spin Columns. Purified dried eluates were resuspended in 150 μL of 3:97 Acetonitrile/water (0.1% FA) and analyzed by MS. All samples were analysed by liquid chromatography-tandem mass spectrometry (LC-MS/MS) using a Q Exactive Mass Spectrometer fitted with an EASY-nLC 1000 (both Thermo Fisher Scientific). Analytes were resolved with an Acclaim PepMap RSLC C18, 50 m×150 mm, 2 m analytical column (Thermo Fisher Scientific) at a flow rate of 0.3 It/min by running a linear gradient from 3% to 50% ACN over 60 min. All buffers contained 0.1% formic acid. MS spectra were recorded in SIM scan mode with a resolution of 70000 and a maximum injection time of 100 ms. MS/MS were recorded at a resolution of 35000 and a maximum injection time of 250 ms.
(§6) Raw files were then analysed with the Skyline software. MS1 areas of the two ions were used for quantification.

in vivo = conditions: female, BALB/C nu/nu, mouse, iv, 250 nmol/kg
Method: as §4, §5, §6

SK-RC-52.hFAP tumour = experiment: Therapy experiment in SK-RC-52.hFAP tumour bearing mice; conditions: 500 nmol/kg intravenously from day 8 for 6 consecutive days
Method: SK-RC-52.hFAP xenografted tumors were implanted into female athymic BALB/C nu/nu mice (6-8 weeks of age) as described above, and allowed to grow to an average volume of 0.1 mL.
Mice were randomly assigned into 8 therapy groups of 4 animals each (5 single-agent groups, 2 combination groups and vehicle group). […] L19-IL2 was diluted at 330 μg/mL in the appropriate formulation buffer and intravenously administered at the dose of 2.5 mg/kg.
Mice in single-agent groups received daily injections of ESV6-ValCit-MMAE, QCOOH-ValCit-MMAE or L 19-IL2.
Mice in combination groups received daily injections of ESV6-ValCit-MMAE on day 8,10 and 12 after tumor implantation, and of L 19-IL2 on day 9,11 and 13 after tumor implantation.
Tumors were measured with an electronic caliper and animals were weighted daily. Tumor volume (mm^3) was calculated with the formula (long side, mm)×(short side, mm)×(short side, mm)×0.5.
Prism 6 software (GraphPad Software) was used for data analysis (regular two-way ANOVA followed by Bonferroni test).

hFAP [4] = biological target: T1, hFAP (Homo sapiens, UniProt Q12884); experiment: Affinity measurement to human FAP by fluorescence polarization; assay type: binding; conditions: binder 10 nM, read-out: KD to hFAP
T1 construct: made in house; host or cells: CHO cells, transient gene expression, purified from supernatant
T1 sequence (Q12884 with tags, fused parts or gaps): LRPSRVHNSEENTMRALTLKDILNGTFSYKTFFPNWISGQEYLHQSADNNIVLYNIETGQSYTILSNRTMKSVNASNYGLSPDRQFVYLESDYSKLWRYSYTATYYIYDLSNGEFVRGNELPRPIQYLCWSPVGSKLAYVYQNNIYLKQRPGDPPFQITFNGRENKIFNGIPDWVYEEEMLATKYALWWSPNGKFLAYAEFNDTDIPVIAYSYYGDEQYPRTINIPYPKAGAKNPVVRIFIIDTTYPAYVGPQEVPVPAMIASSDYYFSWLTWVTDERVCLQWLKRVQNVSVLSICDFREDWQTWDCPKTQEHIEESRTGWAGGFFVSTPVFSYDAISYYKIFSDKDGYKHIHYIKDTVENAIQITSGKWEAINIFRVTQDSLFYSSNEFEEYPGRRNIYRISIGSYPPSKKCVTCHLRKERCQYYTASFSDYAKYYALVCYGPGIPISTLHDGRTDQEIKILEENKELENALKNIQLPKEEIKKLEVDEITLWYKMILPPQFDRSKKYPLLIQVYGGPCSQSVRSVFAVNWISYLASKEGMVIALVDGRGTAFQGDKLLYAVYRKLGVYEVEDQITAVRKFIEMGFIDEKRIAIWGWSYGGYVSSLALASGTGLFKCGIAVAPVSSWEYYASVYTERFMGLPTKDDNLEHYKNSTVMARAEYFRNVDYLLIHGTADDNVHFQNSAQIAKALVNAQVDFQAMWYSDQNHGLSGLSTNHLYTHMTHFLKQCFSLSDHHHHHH
Method: Fluorescence polarization measurements were performed in 384-well plates (non-binding, ps, f-bottom, black, high volume, 30 μL final volume). A stock solution of human FAP (4 μM) was serially diluted with buffer (50 mM Tris, 100 mM NaCl, 1 mM EDTA, pH=7.4), while the final concentration of the binders was kept constant at 10 nM. The measurements were carried out after incubating for 30 min at 37° C. in the dark by fluorescent polarization (FIG. 4).
(§3) Fluorescence polarization experiments were performed in 384-well plates (non-binding, ps, f-bottom, black, high volume, 30 μL final volume). Stock solutions of human FAP (4 μM) and murine FAP (5 μM) were serially diluted with buffer (50 mM Tris, 100 mM NaCl, 1 mM EDTA, pH=7.4), while the final concentration of the binders was kept constant at 10 nM. The fluorescence anisotropy was measured on a TECAN microtiter plate reader. Experiments were performed in triplicate and the mean anisotropy values fitted using Prism 7.

hFAP [5] = biological target: T1, hFAP; experiment: Chromatographic co-elution (PD-10) of ligand-protein complexes, hFAP; assay type: binding; conditions: PD-10 column, hFAP 2 μM
Method: A PD-10 column was pre-equilibrated with assay buffer (50 mM Tris, 100 mM NaCl, 1 mM EDTA, pH=7.4) prior to the loading of the complex. Human FAP (2 μM) and fluorescein-labeled binders (6 μM) were incubated for 30 min at 37° C. in the dark. The mixture was loaded and the column was flushed using the assay buffer. The flow through was collected in 96-well plates and the fluorescence was measured immediately on a TECAN microtiter plate reader, monitoring the fluorescence at an excitation wavelength of 485 nm and an emission wavelength of 535 nm. The protein quantities were estimated by measuring the absorbance at 280 nm using a Nanodrop 2000/2000c spectrophotometer.
A PD-10 column was pre-equilibrated with assay buffer (50 mM Tris, 100 mM NaCl, 1 mM EDTA, pH=7.4) prior to the loading of the complex. A mixture of different proteins (hFAP=2 μM, mFAP=5 μM) and conjugate 15 (100 nM) were incubated and loaded on the column. The mixture was flushed using the assay buffer. The flow through was collected in 96-well plates and the fluorescence intensity was measured immediately on a TECAN microtiter plate reader, monitoring the fluorescence at an excitation wavelength of 485 nm and an emission wavelength of 535 nm. The concentration of the proteins was estimated by measuring the absorbance at 280 nm using a Nanodrop 2000/2000c spectrophotometer.

hFAP [6] = biological target: T1, hFAP; experiment: Dissociation rate measurement by fluorescence polarization; assay type: binding; conditions: 2.0 nM binder, 1.0 μM human FAP, 37° C., 20 μM fluorescein-free competitor
Method: Fluorescence polarization measurements to determine the koff values were performed in 384-well plates (non-binding, ps, f-bottom, black, high volume, 30 μL final volume). The measurements were carried out after pre-incubation of 2.0 nM fluorescein-labelled binders with human FAP at a constant concentration of 1.0 μM at 37° C. in the dark. The dissociation of the fluorescein-labeled compound was induced by adding a large excess of the corresponding fluorescein-free binders (compound P3 obtained in Step 3 of Example 2 and compound H6 obtained in Step 6 of Comparative Example 1, respectively, each at 20 μM final concentration).

murine FAP = biological target: T2, murine FAP (Mus musculus, UniProt P97321); experiment: Affinity measurement to murine FAP by fluorescence polarization; assay type: binding; conditions: binder 10 nM, read-out: KD to mFAP
T2 sequence (P97321 1-761): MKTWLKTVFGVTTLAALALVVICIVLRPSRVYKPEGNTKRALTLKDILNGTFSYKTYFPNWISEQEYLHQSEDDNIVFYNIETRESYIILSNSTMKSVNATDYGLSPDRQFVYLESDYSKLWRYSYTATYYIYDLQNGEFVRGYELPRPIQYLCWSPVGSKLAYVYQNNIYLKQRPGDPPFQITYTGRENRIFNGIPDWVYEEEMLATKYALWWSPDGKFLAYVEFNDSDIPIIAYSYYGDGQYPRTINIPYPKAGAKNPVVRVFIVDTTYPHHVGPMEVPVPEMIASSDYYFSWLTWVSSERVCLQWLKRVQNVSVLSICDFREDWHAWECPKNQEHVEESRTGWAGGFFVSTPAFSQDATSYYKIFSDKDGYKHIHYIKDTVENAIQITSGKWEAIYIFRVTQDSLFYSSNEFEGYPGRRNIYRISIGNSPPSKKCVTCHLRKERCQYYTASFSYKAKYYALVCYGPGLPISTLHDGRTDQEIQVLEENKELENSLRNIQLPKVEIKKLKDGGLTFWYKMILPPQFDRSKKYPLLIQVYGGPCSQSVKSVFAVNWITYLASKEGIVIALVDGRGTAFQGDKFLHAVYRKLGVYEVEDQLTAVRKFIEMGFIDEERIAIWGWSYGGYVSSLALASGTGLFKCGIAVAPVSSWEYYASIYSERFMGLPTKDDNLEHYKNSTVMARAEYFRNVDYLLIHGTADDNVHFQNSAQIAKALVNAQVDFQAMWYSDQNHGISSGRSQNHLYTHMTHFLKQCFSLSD
Method: as §3

SMILES: N#C[C@@H]1CC(F)(F)CN1C(=O)CNC(=O)c1ccnc2c(NC(=O)CCC(=O)N[C@@H](CC(=O)O)C(=O)N[C@@H](CCCCN)C(=O)N[C@@H](CC(=O)O)C(=O)N[C@@H](CSC3CC(=O)N(CCCCCNC(=O)c4ccc5c(c4)C(=O)OC54c5ccc(N)c(S(=O)(=O)O)c5Oc5c4ccc(N)c5S(=O)(=O)O)C3=O)C(=O)O)cccc12 (stereo in doubt) [conjugate 30, ESV6-Alexa Fluor 488]
- targeting performance, SK-RC-52.hFAP and SK-RC-52.wt xenografts [1]: localises rapidly, homogeneously and selectively in vivo at the tumour which presents FAP expression 1 hour after the intravenous injection, with an excellent tumour-to-organs selectivity
- targeting performance, HT-1080.hFAP and SK-RC-52.wt xenografts [2]: rapidly, homogeneously and selectively localizes in vivo at the tumour which presents FAP expression 1 hour after the intravenous injection, with an excellent tumour-to-organs selectivity

SMILES: CC[C@H](C)[C@@H]([C@@H](CC(=O)N1CCC[C@H]1[C@H](OC)[C@@H](C)C(=O)N[C@H](C)[C@@H](O)c1ccccc1)OC)N(C)C(=O)[C@@H](NC(=O)[C@H](C(C)C)N(C)C(=O)OCc1ccc(NC(=O)[C@H](CCCNC(N)=O)NC(=O)[C@@H](NC(=O)CCCCCN2C(=O)CC(SC[C@H](NC(=O)[C@H](CC(=O)O)NC(=O)[C@H](CCCCN)NC(=O)[C@H](CC(=O)O)NC(=O)CCC(=O)Nc3cccc4c(C(=O)NCC(=O)N5CC(F)(F)C[C@H]5C#N)ccnc34)C(=O)O)C2=O)C(C)C)cc1)C(C)C (stereo partly drawn) [ESV6-ValCit-MMAE]
- anti-tumour effect (mean tumour volume) (SK-MEL-187 tumour): more potent anti-tumour effect as compared with HABERKORN-ValCit-MMAE
- tolerability (changes in body weight), acute toxicity (SK-MEL-187 tumour): lower acute toxicity as compared to HABERKORN-ValCit-MMAE
- accumulation in FAP-negative SK-RC-52 wild type tumours [3]: does not accumulate in FAP-negative SK-RC-52 wild type tumours
- uptake at the tumour site (FAP-positive SK-RC-52) [3]: 18 % ID/g
- uptake in healthy organs [3]: lower than 1 % ID/g
- tissue uptake at 6 h (in vivo; SK-RC-52.hFAP tumour (FAP-positive)): 18 %ID/g
- tissue uptake at 6 h (in vivo; healthy organs): < 1 %ID/g
- anti-tumour effect (mean tumour volume) (SK-RC-52.hFAP tumour): more potent anti-tumour effect as compared with QCOOH-ValCit-MMAE

SMILES: N#C[C@@H]1CC(F)(F)CN1C(=O)CNC(=O)c1ccnc2c(NC(=O)CCC(=O)NCCOCCOCCNC(=S)Nc3ccc4c(c3)C(=O)OC43c4ccc(O)cc4Oc4cc(O)ccc43)cccc12 [ESV6-fluo, (S)—N1-(4-((2-(2-cyano-4,4-difluoropyrrolidin-1-yl)-2-oxoethyl)carbamoyl)quinolin-8-yl)-N4-(2-(2-(2-(3-(3′,6′-dihydroxy-3-oxo-3H-spiro[isobenzofuran-1,9′-xanthen]-5-yl)thioureido)ethoxy)ethoxy)ethyl)succinamide]
- Kd (hFAP [4]): 0.78 nM
- complex formation with hFAP in PD-10 co-elution (hFAP [5]): stable complex is formed
- dissociation from hFAP, regression coefficient (hFAP [6]): −0.09356

SMILES: N#C[C@@H]1CC(F)(F)CN1C(=O)CNC(=O)c1ccnc2ccc(OCCCN3CCN(C(=O)c4ccc5c(c4)C(=O)OC54c5ccc(O)cc5Oc5cc(O)ccc54)CC3)cc12 [Haberkorn-fluo, (S)—N-(2-(2-cyano-4,4-difluoropyrrolidin-1-yl)-2-oxoethyl)-6-(3-(4-(3′,6′-dihydroxy-3-oxo-3H-spiro[isobenzofuran-1,9′-xanthene]-5-carbonyl)piperazin-1-yl)propoxy)quinoline-4-carboxamide, reference compound]
- Kd (hFAP [4]): 0.89 nM
- complex formation with hFAP in PD-10 co-elution (hFAP [5]): stable complex is formed
- dissociation from hFAP, regression coefficient (hFAP [6]): −0.07511

SMILES: N#C[C@@H]1CC(F)(F)CN1C(=O)CNC(=O)c1ccnc2ccc(OCCCN3CCN(C(=O)CCC(=O)N[C@@H](CC(=O)O)C(=O)N[C@@H](CCCCN)C(=O)N[C@@H](CC(=O)O)C(=O)N[C@@H](CSC4CC(=O)N(c5ccc6c(c5)C(=O)OC65c6ccc(O)cc6Oc6cc(O)ccc65)C4=O)C(=O)O)CC3)cc12 (stereo partly drawn) [conjugate 25, reference compound] ({X2-Suc}-DKDC(Fluorescein(5-Mal))-OH)
- Kd (hFAP [4]): 1.02 nM
- Kd (murine FAP): 30.9 nM
